Results reported in article PMC7031302, “Design and synthesis of new energy restriction mimetic agents: Potent anti-tumor activities of hybrid motifs of aminothiazoles and coumarins” (Scientific Reports, 2020).

How the values were obtained:
HT-29 [1] = assay: ROS-Glo H2O2 assay, HT-29; type: cell-based, Human; conditions: HT-29, 6 h incubation
Description: (§1) According to previous studies, ERMAs inhibited glucose utilization in cancer cells[13],[19]. Therefore, we investigated glucose uptake (Fig. 5A) upon treatment with 9b and 9f in HT-29 and HCT116 cells at different concentrations based on the IC50 of each compound. […] This effect is known to result in the accumulation of reactive oxygen species (ROS) and could play a role in glucose deprivation-induced cytotoxicity and oxidative stress in cancer cells. […] The observed increase in ROS levels could lead to oxidative stress and extensive cell death in the absence of NADPH detoxification.
(§2) NADPH/NADP+ and ROS concentrations were measured using the NADP/NADPH-Glo Assay Kit (Promega, Madison, WI, USA) and ROS-Glo H2O2 Assay (Promega, Madison, WI, USA), respectively, based on the manufacturer instructions. In NADPH/NADP+ assay, CRC cells were seeded into a 96-well flat-bottomed plate and incubated overnight. On the following day, cells were treated with the testing compound or vehicle for 48 h. At the endpoint of treatment, the media were aspirated and replaced with 60 µl PBS/well, then cells were lysed in 60 µl base solution with 1% dodecyl (trimethyl) ammonium bromide (Sigma-Aldrich-St. Louis, MO, USA). […] Luminescence was measured after 30 minutes using Varioskan Flash multimode reader (Thermo Scientific). […] Luminescence was measured after 20 min incubation at room temperature.

HT-29 [2] = assay: Glucose uptake assay, HT-29; type: cell-based, Human; conditions: HT-29, 16 h treatment, dose-dependent
Description: as §1
CRC cells (1 × 10^4) were seeded into a 96-well plate overnight. Cells were treated with test compounds or vehicle (negative control) glucose-free RPMI-1640 medium for 16 h; then, the cells were incubated with 2 mM 2-DG for 10 minutes. Eventually, glucose uptake of cells was measured using Glucose Uptake-Glo Assay (Promega, Madison, WI, USA) according to the manufacturer’s instructions. Luminescence was measured post 2 h of incubation at room temperature using Varioskan Flash multimode reader (Thermo Scientific). Glucose uptake was normalized to the total protein content in the samples using DC protein assay kit (Bio-Rad, Hercules, CA, USA).

CRC cells = assay: NADPH/NADP+ assay; type: cell-based, Human; conditions: 48 h treatment
Description: as §1, §2

[3] = test system: normal fibroblast cell line (F180); assay: MTT cell viability, normal fibroblasts F180; type: cell-based; conditions: Homo sapiens, read-out: IC50 on normal cells
Protocol: The potential cytotoxicity of 24 candidate compounds was initially evaluated at a single concentration level (5 μM). Then a full dose-response curve was plotted for each compound against different colorectal cancer cell lines (HCT116 and HT-29) by MTT assay after 72 h treatments. 4-hydroxycoumarin, OSU-CG5, and OSU-CG12 were used as positive controls. […] Compounds 9b, 9c, 9f, 9i, 11b, and 11c were selected for further studies to determine the full dose-response survival curves using different concentrations (0.1–20 µM) against CRC cell lines and normal fibroblast cell line (F180) at different time points (Fig. 2A–2F and supplementary material Page S63 and S64).
Human colorectal carcinoma cell lines (HCT116) and (HT-29) were obtained from the European Collection of Cell Cultures (ECACC, UK). The cell lines were cultured in Roswell Park Memorial Institute medium (RPMI-1640, Sigma-Aldrich-St. Louis, MO, USA) supplemented with 10% fetal bovine serum (Sigma-Aldrich-St. Louis, MO, USA) and 1% penicillin/streptomycin (Sigma-Aldrich- Louis, MO, USA). […]
Cell viability was assessed using, 3-(4,5-dimethylthiazol-2-yl)-2,5-diphenyltetrazolium bromide (MTT) assay as previously described. […] The reduced MTT crystals were solubilized in 200 µl/well of DMSO and the absorbance was measured at 570 nm using a microplate reader (Thermo-Scientific, Vantaa, Finland).

Cc1cc(=O)oc2cc(Nc3nc(-c4ccc(Br)cc4)cs3)ccc12 [Compound 9b, 7-(4-(4-Bromophenyl)thiazol-2-ylamino)-4-methyl-2H-chromen-2-one]
generation of hydrogen peroxide (H2O2) and ROS (HT-29 [1]): significantly increased | glucose uptake (HT-29 [2]): inhibited significantly | NADPH/NADP+ ratio (CRC cells): significant decrease

Cc1cc(=O)oc2cc(Nc3nc(-c4cccc([N+](=O)[O-])c4)cs3)ccc12 [Compound 9f, 4-Methyl-7-(4-(3-Nitrophenyl)thiazol-2-ylamino)-2H-chromen-2-one]
IC50 [3]: 7.97 µM | glucose uptake (HT-29 [2]): inhibited significantly | NADPH/NADP+ ratio (CRC cells): significant decrease
